Measurements published in patent publication US10308660B2, “Compounds and compositions for inhibiting the activity of SHP2” (Novartis AG, priority 2015, dated 2019).

Target: SHP2 (Homo sapiens (Human), UniProt Q06124)
Assay: SHP2 allosteric inhibition assay (DiFMUP prompt fluorescence)
Format: biochemical
Conditions: 0.5 nM SHP2 activated with 0.5 μM peptide IRS1_pY1172(dPEG8)pY1222; substrate DiFMUP; 25° C.

Chain of SHP2 (Q06124 whole entry): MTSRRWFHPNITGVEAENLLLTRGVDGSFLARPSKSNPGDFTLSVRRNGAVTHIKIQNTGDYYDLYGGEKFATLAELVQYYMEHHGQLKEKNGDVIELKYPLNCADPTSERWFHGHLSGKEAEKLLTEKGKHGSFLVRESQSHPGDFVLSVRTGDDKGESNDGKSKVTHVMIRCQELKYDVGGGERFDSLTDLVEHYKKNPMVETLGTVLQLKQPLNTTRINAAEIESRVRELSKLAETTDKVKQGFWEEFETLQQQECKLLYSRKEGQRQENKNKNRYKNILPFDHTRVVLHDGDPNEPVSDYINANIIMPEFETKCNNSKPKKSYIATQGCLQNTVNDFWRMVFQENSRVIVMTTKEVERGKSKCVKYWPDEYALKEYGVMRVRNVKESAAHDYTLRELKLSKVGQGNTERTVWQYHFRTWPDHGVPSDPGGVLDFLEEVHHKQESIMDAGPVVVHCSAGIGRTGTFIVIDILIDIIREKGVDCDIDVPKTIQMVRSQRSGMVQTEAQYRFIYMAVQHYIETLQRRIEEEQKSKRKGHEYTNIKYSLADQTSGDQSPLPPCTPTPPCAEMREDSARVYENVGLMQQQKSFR

Row | SMILES | IC50
1 | C[C@H]1C[C@@H](N)C2(CCN(c3nc(N)c(-c4ccc(Cl)cc4)c(=O)n3C)CC2)C1 [Example 172] | 174 nM
2 | COc1ccc(-c2c(N)nc(N3CCC4(CC3)CO[C@@H](C)[C@H]4N)n(C)c2=O)cc1C [Example 173] | 175 nM
3 | C[C@@H]1OCC2(CCN(c3nc(N)c(-c4ccc(C(C)(C)C)cc4)c(=O)n3C)CC2)[C@@H]1N [Example 174] | 183 nM
4 | C[C@@H]1OCC2(CCN(c3nc(N)c(-c4ccc(C#N)cc4)c(=O)n3C)CC2)[C@@H]1N [Example 175] | 256 nM
5 | Cc1ccccc1-c1c(N)nc(N2CCC3(CC2)CO[C@@H](C)[C@H]3N)n(C)c1=O [Example 176] | 271 nM
6 | C[C@@H]1OCC2(CCN(c3nc(N)c(-c4ccc(Cl)c(Cl)c4)c(=O)n3C)CC2)[C@@H]1N [Example 177] | 309 nM
7 | C[C@@H]1OCC2(CCN(c3nc(N)c(-c4ccc(C5CCOCC5)cc4)c(=O)n3C)CC2)[C@@H]1N [Example 178] | 412 nM
8 | C[C@@H]1OCC2(CCN(c3nc(N)c(-c4cc(Cl)cc(Cl)c4)c(=O)n3C)CC2)[C@@H]1N [Example 179] | 421 nM
9 | C[C@@H]1OCC2(CCN(c3nc(N)c(-c4cc(Cl)cc(Cl)c4Cl)c(=O)n3C)CC2)[C@@H]1N [Example 180] | 515 nM
10 | COc1ccccc1-c1c(N)nc(N2CCC3(CC2)CO[C@@H](C)[C@H]3N)n(C)c1=O [Example 181] | 840 nM
11 | C[C@@H]1OCC2(CCN(c3nc(N)c(-c4ccccn4)c(=O)n3C)CC2)[C@@H]1N [Example 182] | 1060 nM
12 | Cc1ncccc1-c1c(N)nc(N2CCC3(CC2)CO[C@@H](C)[C@H]3N)n(C)c1=O [Example 183] | 1590 nM
13 | C[C@@H]1OCC2(CCN(c3nc(N)c(-c4cccc(C(F)(F)F)c4)c(=O)n3C)CC2)[C@@H]1N [Example 184] | 1690 nM
14 | C[C@@H]1OCC2(CCN(c3nc(N)c(-c4ccc(N5CCOCC5)cc4)c(=O)n3C)CC2)[C@@H]1N [Example 185] | 2120 nM
15 | C[C@@H]1OCC2(CCN(c3nc(N)c(-c4cc(Cl)ccc4Cl)c(=O)n3C)CC2)[C@@H]1N [Example 186] | 2230 nM
16 | C[C@@H]1OCC2(CCN(c3nc(N)c(-c4ccnc(Cl)c4)c(=O)n3C)CC2)[C@@H]1N [Example 187] | 2950 nM
17 | C[C@@H]1CC2(CCN(c3nc(N)c(-c4ccccc4)c(=O)n3C)CC2)[C@H](N)[C@H]1F [Example 188] | 15 nM
18 | Cn1c(N2CCC3(CC2)COC[C@H]3N)nc(N)c(-c2ccccc2)c1=O [Example 189] | 41 nM
19 | Cn1c(N2CCC3(CC2)COC[C@H]3N)nc(N)c(-c2cccc(Cl)c2Cl)c1=O [Example 190] | 69 nM
20 | Cn1c(N2CCC3(CCC[C@H]3N)CC2)nc(N)c(-c2ccccc2)c1=O [Example 191] | 27 nM
21 | Cn1c(N2CCC3(CCC[C@H]3N)CC2)nc(N)c(-c2cccc(Cl)c2Cl)c1=O [Example 192] | 21 nM
22 | Cn1c(N2CCC(C)(CN)CC2)nc(N)c(-c2cccc(Cl)c2Cl)c1=O [Example 193] | 40 nM
23 | Cc1nc(N2CCC3(CC2)CO[C@@H](C)[C@H]3N)n(C)c(=O)c1-c1ccccc1 [Example 197] | 369 nM
24 | CC1(CN)CCN(c2ncc(-c3cccc(Cl)c3Cl)c(=O)[nH]2)CC1 [Example 200] | > 100000 nM
25 | C[C@@H]1OCC2(CCN(c3ncc(-c4cccc(Cl)c4Cl)c(=O)[nH]3)CC2)[C@@H]1N [Example 201] | 3340 nM
26 | N[C@@H]1CCCC12CCN(c1ncc(-c3cccc(Cl)c3Cl)c(=O)[nH]1)CC2 [Example 202] | 782 nM
